Source: patent publication US10301294B2, “Compounds for the treatment of tuberculosis” (priority 2013, dated 2019)

Assays:
Assay type in all cases: cell-based
[1] = Cytotoxicity against HeLa; conditions: human, HeLa cells, 26.0 uM highest concentration measured
[2] = tested on: carbon-starved M. tuberculosis H37Rv; assay: Non-replicating IC90 determination by luciferase (carbon-starved cells); conditions: Mycobacterium tuberculosis, H37RV; non-replicating carbon-starved Mtb, luciferase; three independent experiments in triplicate; read-out: TB Growth Inhibition Activity, IC90 Non-replicating_luciferase
[3] = Cytotoxicity against Hek 293; conditions: human, HEK293 cells, 26.0 uM highest concentration measured
[4] = Cytotoxicity against HepG2; conditions: human, HepG2 cells, 26.0 uM highest concentration measured
[5] = tested on: replicating M. tuberculosis H37Rv; assay: microbe, parasite or virus in culture; conditions: Mycobacterium tuberculosis, H37RV, three independent experiments in triplicate, read-out: TB Growth Inhibition Activity, IC90 Replicating_logarithmic (converted)

Structure (SMILES) | IC50 [1] [µM] | IC90 [2] [µM] | IC50 [3] [µM] | IC50 [4] [µM] | IC90 [5] [µM]
CS(=O)(=O)c1ccc(CSc2nnc(-c3ccccc3)o2)cc1 | > 26 | 31 | > 26 | > 26 | –
CS(=O)(=O)c1cccc(-c2nnc(SCc3ccccc3)o2)c1 | > 26 | 125 | > 26 | > 26 | –
Clc1cccc(-c2nnc(SCc3ccccc3)o2)c1 | > 26 | 8 | > 26 | > 26 | –
c1ccc(Cn2cc(CSc3nnc(C4CCCC4)o3)nn2)cc1 | > 26 | 31 | > 26 | > 26 | 62
O=S(=O)(Cc1ccccc1)c1nnc(-c2ccccc2)o1 [drawing 80] | > 26 | 8 | > 26 | > 26 | 125
Cc1cccc(-c2nnc(SCc3ccccc3)o2)c1 | > 26 | 8 | > 26 | > 26 | –
c1ccc(CSc2nnc(C3CCCC3)o2)cc1 | > 26 | 0.5 | > 26 | > 26 | 125
N#Cc1ccccc1CSc1nnc(-c2ccccc2)o1 | > 26 | 4 | > 26 | > 26 | –
c1ccc(-c2nnc(SCc3ccccn3)o2)cc1 [drawing 142] | > 26 | 3 | > 26 | > 26 | 100
c1ccc(CNc2nnc(-c3ccccc3)o2)cc1 | > 26 | 4 | > 26 | > 26 | –
c1ccc(CSc2nnc(-c3cscn3)o2)cc1 | > 26 | 4 | > 26 | > 26 | 125
c1ccc(-c2ccc(CSc3nnc(-c4ccccc4)o3)cc2)cc1 | > 26 | 8 | > 26 | > 26 | –
FC(F)(F)Oc1cccc(-c2nnc(SCc3ccccc3)o2)c1 | > 26 | 31 | > 26 | > 26 | 250
Clc1ccc(-c2nnc(SCc3cn(-c4ccccc4)nn3)o2)cc1 [drawing 164] | > 26 | 1 | > 26 | > 26 | > 62
c1ccc(CSc2nnc(-c3cccnc3)o2)cc1 | > 26 | 2 | > 26 | > 26 | 125
FC1(F)CN(CCSc2nnc(-c3ccccc3)o2)C1 | > 26 | 1 | > 26 | > 26 | 250

Structure (SMILES) | IC50 [1] [µM] | IC90 [2] [µM] | IC50 [3] [µM] | IC50 [4] [µM] | IC90 [5] [µM]
Fc1ccccc1-c1nnc(SCc2ccccc2)o1 | > 26 | 2 | > 26 | > 26 | 125
Clc1ccccc1CSc1nnc(-c2ccccc2)o1 | > 26 | 2 | > 26 | > 26 | 250
c1ccc(CSc2nnc(-c3ccccc3)o2)cc1 | > 26 | 8 | > 26 | > 26 | 62
c1ccc(-c2nnc(SCc3ccncc3)o2)cc1 [drawing 144] | > 26 | 31 | > 26 | > 26 | 250
Clc1ccc(-c2nnc(SCc3ccccc3)o2)cc1 | > 26 | 4 | > 26 | > 26 | 500
Clc1ccc(CSc2nnc(-c3ccccc3)o2)cc1 | > 26 | 1 | > 26 | > 26 | –
FC(F)(F)c1ccc(CSc2nnc(-c3ccccc3)o2)cc1 | > 26 | 1 | > 26 | > 26 | –
FC(F)(F)Oc1ccc(-c2nnc(SCc3ccccc3)o2)cc1 | > 26 | 2 | > 26 | > 26 | –
N#Cc1cccc(-c2nnc(SCc3ccccc3)o2)c1 | > 26 | 8 | > 26 | > 26 | –
Fc1ccc(CSc2nnc(-c3ccccc3)o2)cc1 [drawing 136] | > 26 | 1 | > 26 | > 26 | –
FC(F)(F)Oc1ccc(CSc2nnc(-c3ccccc3)o2)cc1 | > 26 | 1 | > 26 | > 26 | –
N#Cc1cccc(CSc2nnc(-c3ccccc3)o2)c1 | > 26 | 8 | > 26 | > 26 | –
N#Cc1ccc(-c2nnc(SCc3ccccc3)o2)cc1 | > 26 | 8 | > 26 | > 26 | –
CC1(O)CN(CCSc2nnc(-c3ccccc3)o2)C1 | > 26 | 125 | > 26 | > 26 | –
FC(F)(F)c1ccccc1CSc1nnc(-c2ccccc2)o1 | > 26 | 1 | > 26 | > 26 | –
